Assay results: paper PMC11109155, “Cell-free biosynthesis and engineering of ribosomally synthesized lanthipeptides” (Nature Communications, 2024)

Columns and labels:
[1] = tested on: S. aureus RN4220; assay: MIC and IC50 assay with the indicator strain S. aureus RN4220; assay type: cell-based, Staphylococcus aureus; settings: purified peptides produced in vivo
Experimental: We next sought to test the antimicrobial activity of the mutated salivaricin B variants against the indicator strain S. aureus RN4220. To compare their activity, we first determined the concentrations of all peptide variants synthesized in UniBioCat reactions (Fig. 3c and Supplementary Table 5) and added an equal amount of each variant to the cell culture in 96-well plates. During the cultivation, OD600 values were measured every 2 h for a total of 12 h. […] Based on the single-site mutagenesis and activity assay, we performed a second-round mutation with two-site mutagenesis at both Q6 and L20 using eight selected variants (the combination leads to 15 two-site mutated variants). All these new variants could be synthesized and detected by MALDI-TOF-MS (see Fig. 3b for representative analyses). […] To further verify their activity and compare to standard in vivo approaches, six variants including single- and two-site mutation were selected to be produced by in vivo expression/modification and in vitro digestion for maturation. […] Additionally, we evaluated the MIC and IC50 of four strong variants (see Supplementary Fig. 12 for SalB_Q6H, SalB_L20M, SalB_L20I-Q6H, and SalB_L20M-Q6H) against three other indicator strains, including Bacillus subtilis, Micrococcus luteus, and Lactococcus lactis.
MIC values were determined by using a broth microdilution method. […]

[2] = tested on: Micrococcus luteus; assay: MIC (broth microdilution) and IC50 determination; assay type: cell-based; settings: LB, 37 °C, 130 rpm
Experimental: (§1) MIC values were determined by using a broth microdilution method. Overnight cultures of each indicator strain were diluted to 5 × 10^5 CFU mL^−1 using fresh LB medium and distributed into 96-well plates. Then, the cells were treated with twofold serial dilutions of the purified peptides (i.e., salivaricin B and variants). The total volume of each cultivation was 200 μL per well, consisting of 175 μL bacteria cells and 25 μL diluted peptides. The final concentrations of each peptide were set at 0.12, 0.25, 0.5, 1, 2, 4, 8, and 16 μM. The positive growth control wells only contained bacterial cells without addition of peptides. The plates were incubated with 130 rpm at 37 °C for B. subtilis and M. luteus and 30 °C for L. lactic. After incubation, the lowest peptide concentration, which inhibited 90% of the bacterial growth, was recorded as the MIC. The growth curves were used to determine IC50 values with GraphPad Prism (version 10.2.1, GraphPad Software).
(§2) Supplementary Table 6 Minimal inhibitory concentrations (MIC) and IC50 of salivaricin B and variants.
(§3) Bacillus subtilis Micrococcus luteus Lactococcus lactis
(§4) Peptides MIC IC50 MIC IC50 MIC IC50
(§5) (μM) (μM) (μM) (μM) (μM) (μM)
(§6) Source data are provided as a Source Data file.

[3] = tested on: Lactococcus lactis; assay: MIC (broth microdilution) and IC50 determination; assay type: cell-based; settings: LB, 30 °C, 130 rpm
Experimental: as §1, §2, §3, §4, §5, §6

[4] = tested on: Bacillus subtilis; assay: MIC (broth microdilution) and IC50 determination; assay type: cell-based; settings: LB, 37 °C, 130 rpm
Experimental: as §1, §2, §3, §4, §5, §6

[5] = read-out: IC50 of salivaricin B, previous report; cited from earlier work
Experimental: We next sought to test the antimicrobial activity of the mutated salivaricin B variants against the indicator strain S. aureus RN4220. To compare their activity, we first determined the concentrations of all peptide variants synthesized in UniBioCat reactions (Fig. 3c and Supplementary Table 5) and added an equal amount of each variant to the cell culture in 96-well plates. During the cultivation, OD600 values were measured every 2 h for a total of 12 h. […] Based on the ...

[6] = tested on: Staphylococcus aureus RN4220; assay: Agar diffusion assay (diameter of zone of inhibition); assay type: cell-based; settings: for DZI, diameter of zone of inhibition: LB agar, 6 mm paper disks, 37 °C 16 h, peptides 1 mM (SalB & B-1: cell-free synthesized, purified mixture; SalB and SalB-1: produced in vivo, purified), Kan 50 μg/mL positive control, representative of n = 3; for Antimicrobial activity against Staphylococcus aureus RN4220 (in words): agar diffusion assay, in vivo and cell-free produced peptides, 1 mM
Description: Fig. 2 In vitro expression, modification, and maturation of salivaricin B in UniBioCat. a The gene cluster (top) and catalytic steps (bottom) of salivaricin B biosynthesis. Dha, dehydroalanine; Dhb, dehydrobutyrine; Abu, α-aminobutyric acid. b Western-blot analysis of the cell-free expressed precursor peptide (left: SboA, 7.8 kDa) and modification enzymes [right: SboM (113 kDa) and SboT (83 kDa) are co-expressed]. Peptides/enzymes are labeled with the anti-His antibody. M, protein marker; T, total protein; S, soluble protein. Results were reproduced three times independently; representative data are shown. c MALDI-TOF-MS analysis of the precursor peptide (left: 6x His-tagged SboA, [M + H]^+ m/z = 7355) and modified precursor peptides (right: dehydrated 6x His-tagged SboA, [M-H2O + H]^+ m/z = 7337, [M-2H2O + H]^+ m/z = 7319, and [M−4H2O + H]^+ m/z = 7283). d MALDI-TOF-MS (left), LC-MS (middle), and MS/MS (right) analysis of matured salivaricin B. e MALDI-TOF-MS (left), LC-MS (middle), and MS/MS (right) analysis of the analog salivaricin B−1 with one additional amino acid alanine at the N-terminus. f Antimicrobial activity assay of salivaricin B (SalB) and salivaricin B-1 (SalB-1). “SalB & B-1” was cell-free synthesized and purified for the activity assay (note that the sample used was a mixture of SalB and B-1 with a concentration of 1 mM for the test). For in vivo produced SalB and SalB-1, 1 mM of each purified SalB and SalB-1 was used for the activity assay. NC, negative control; Kan, kanamycin (50 μg/mL) as a positive control; DZI, diameter of zone of inhibition (in mm). Data shown representative of three independent experiments (n = 3). Source data are provided as a Source Data file. TEXT PRINTED IN THE PICTURE: (f) Kan: DZI: 22 | (f) SalB & B-1 (UniBioCat): DZI: 7.5 | (f) SalB (in vivo): DZI: 7.5 | (f) SalB-1 (in vivo): DZI: 9.5
Two approaches were used for testing antimicrobial activity, including solid agar plate diffusion and liquid medium cultivation. In the diffusion assay, the overnight cultivated indicator strain S. aureus RN4220 was mixed with the melted LB agar medium (a starting OD600 of 0.05). The mixture was poured onto the plate and allowed to solidify at room temperature for 30 min. Then, sterile paper disks (diameter 6 mm) were placed on the surface of the agar plate and 1 mM of each peptide was added to the paper disk. The plates were incubated at 37 °C for 16 h, and the diameter of the zone of inhibition (DZI, in mm) was measured for comparison. In the second approach, the assay was performed in 96-well plates, and cell-free synthesized mature peptides were directly used without purification. For the samples of salivaricin B variants, 80 μL of each sample (diluted if necessary) was mixed with 120 μL of LB medium, containing each variant at a roughly final concentration of 6–7 μM and the indicator strain S. aureus RN4220 (a starting OD600 of 0.02). For the samples of uncharacterized (Lan 1 - Lan 10) and three known (lacticin 481, ruminococcin A, and nukacin ISK-1) lanthipeptides, 80 μL of the cell-free reaction mixture was added directly to the liquid cultivation without quantification. The 96-well plates were incubated at 37 °C and 150 rpm for 12 h. During the cultivation, OD600 values were measured every 2 h and ΔOD600 was calculated to compare the antimicrobial activity of tested samples. In all assays, kanamycin was used as a positive for comparison.

[7] = tested on: S. aureus RN4220; assay: Liquid medium cultivation in 96-well plates, growth inhibition as ΔOD600; assay type: cell-based, Staphylococcus aureus; settings: peptides produced in vivo and purified, Supplementary Fig. 12 (50 μM, liquid) and Fig. 2f (1 mM, agar diffusion)
Description: Fig. 3 Generation of salivaricin B mutants and their antimicrobial activity. a Representative MALDI-TOF-MS analyses of single-site mutagenesis at the position of Q6 or L20. b Representative MALDI-TOF-MS analyses of two-site mutagenesis at the positions of Q6 and L20. In (a) and (b), salivaricin B-1 based variants are the most abundant products in all analyses, which are indicated with the [M + H]^+ ions. c Quantification of salivaricin B mutants that are synthesized in UniBioCat reactions (see Supplementary Table 5 for the yield of each peptide variant). d Antimicrobial activity assay showing ΔOD600 profiles of S. aureus RN4220 growth treated with single-site (top) and two-site (bottom) mutants. […]
Two approaches were used for testing antimicrobial activity, including solid agar plate diffusion and liquid medium cultivation. […] The plates were incubated at 37 °C for 16 h, and the diameter of the zone of inhibition (DZI, in mm) was measured for comparison. […] For the samples of uncharacterized (Lan 1 - Lan 10) and three known (lacticin 481, ruminococcin A, and nukacin ISK-1) lanthipeptides, 80 μL of the cell-free reaction mixture was added directly to the liquid cultivation without quantification. […] During the cultivation, OD600 values were measured every 2 h and ΔOD600 was calculated to compare the antimicrobial activity of tested samples. […]

[8] = broth microdilution, 5 × 10^5 CFU mL^−1, purified peptides 0.12–16 μM twofold dilutions, lowest concentration inhibiting 90% of growth
[9] = from growth curves, GraphPad Prism, purified peptides 0.12–16 μM

Compound | IC50 [1] [nM] | MIC, Micrococcus luteus [2, 8] [µM] | IC50 [2, 9] [nM] | MIC, Lactococcus lactis [3, 8] [µM] | IC50 [3, 9] [nM] | MIC, Bacillus subtilis [4, 8] [µM] | IC50 [4, 9] [nM] | IC50 [5] [nM] | DZI, diameter of zone of inhibition [6] [mm] | Antimicrobial activity against Staphylococcus aureus RN4220 (in words) [6] | Antimicrobial activity compared with salivaricin B, purified peptides (in words) [7]
GGGVIQAbuIAlaHEAlaRMNAlaWQFLFDhbAlaAlaS (bicyclic or more) [Salivaricin B, salivaricin B, class II lanthipeptide naturally produced by Streptococcus salivarius K12; wild type, made cell-free or in vivo] | > 8000 | 2 | 1190 ± 50 | 4 | 1670 ± 80 | 4 | 1880 ± 10 | 8640 | 7.5 | clear inhibitory effects on cell growth | –
NC[C@H]1O[C@H](O[C@H]2[C@H](O)[C@@H](O[C@H]3O[C@H](CO)[C@@H](O)[C@H](N)[C@H]3O)[C@H](N)C[C@@H]2N)[C@H](O)[C@@H](O)[C@@H]1O [Kan, kanamycin, reference compound] | – | – | – | – | – | – | – | – | 22 | – | –
AGGGVIQAbuIAlaHEAlaRMNAlaWQFLFDhbAlaAlaS (bicyclic or more) [Salivaricin B-1, salivaricin B-1, salivaricin B-like peptide with one additional amino acid alanine at the N-terminus] | – | – | – | – | – | – | – | – | 9.5 | clear inhibitory effects on cell growth | even higher antimicrobial activity than salivaricin B
